Our source for the IC50 values is patent publication US9067911B2, “Piperidine derivatives” (Hoffmann-La Roche Inc., priority 2009, dated 2015).

Structures can show the parent of a compound that is named as a salt.

This assay addresses T1, mGlyT-1b (Mus musculus, UniProt P28571).
T1 construct: host or cells: Flp-in-CHO
T1 sequence (P28571 1-651 isoform P28571-2): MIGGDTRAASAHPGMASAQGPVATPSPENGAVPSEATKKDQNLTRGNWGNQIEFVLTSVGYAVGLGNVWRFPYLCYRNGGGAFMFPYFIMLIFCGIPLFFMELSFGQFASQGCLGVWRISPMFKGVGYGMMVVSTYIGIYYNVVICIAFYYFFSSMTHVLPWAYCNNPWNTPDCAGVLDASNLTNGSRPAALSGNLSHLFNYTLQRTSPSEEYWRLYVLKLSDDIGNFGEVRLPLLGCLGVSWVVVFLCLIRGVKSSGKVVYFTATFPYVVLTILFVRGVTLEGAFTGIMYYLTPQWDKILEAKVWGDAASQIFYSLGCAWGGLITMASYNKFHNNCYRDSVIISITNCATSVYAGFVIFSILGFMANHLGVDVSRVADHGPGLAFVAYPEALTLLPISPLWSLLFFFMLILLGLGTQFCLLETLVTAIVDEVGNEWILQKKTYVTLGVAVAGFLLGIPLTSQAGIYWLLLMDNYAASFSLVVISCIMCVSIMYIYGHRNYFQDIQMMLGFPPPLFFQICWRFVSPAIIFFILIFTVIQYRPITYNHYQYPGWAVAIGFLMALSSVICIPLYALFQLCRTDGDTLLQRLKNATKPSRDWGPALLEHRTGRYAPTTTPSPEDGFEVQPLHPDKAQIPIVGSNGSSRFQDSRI
Kind of assay: Glycine uptake inhibition assay (mGlyT-1b). Particulars: [3H]-glycine uptake, Flp-in-CHO cells stably transfected with mGlyT1b cDNA, 20 min preincubation at 22° C. Format: cell-based. As for the experimental part:
Nutrient mixture F-12 (Gibco Life-technologies), fetal bovine serum (FBS) 5%, (Gibco life technologies), Penicillin/Streptomycin 1% (Gibco life technologies), Hygromycin 0.6 mg/ml (Gibco life technologies), Glutamine 1 mM Gibco life technologies)
150 mM NaCl, 10 mM Hepes-Tris, pH 7.4, 1 mM CaCl2, 2.5 mM KCl, 2.5 mM MgSO4, 10 mM (+) D-glucose.
Flp-in™-CHO (Invitrogen Cat n° R758-07) cells stably transfected with mGlyT1b cDNA.
Glycine Uptake Inhibition Assay (mGlyT-1b)
On day 1 mammalian cells, (Flp-in™-CHO), transfected with mGlyT-1b cDNA, were plated at the density of 40,000 cells/well in complete F-12 medium, without hygromycin in 96-well culture plates. On day 2, the medium was aspirated and the cells were washed twice with uptake buffer (UB). The cells were then incubated for 20 min at 22° C. with either (i) no potential competitor, (ii) 10 mM non-radioactive glycine, (iii) a concentration of a potential inhibitor. A range of concentrations of the potential inhibitor was used to generate data for calculating the concentration of inhibitor resulting in 50% of the effect (e.g. IC50, the concentration of the competitor inhibiting glycine uptake of 50%). A solution was then immediately added containing [^3H]-glycine 60 nM (11-16 Ci/mmol) and 25 μM non-radioactive glycine. The plates were incubated with gentle shaking and the reaction was stopped by aspiration of the mixture and washing (three times) with ice-cold UB. The cells were lysed with scintillation liquid, shaken 3 hours and the radioactivity in the cells was counted using a scintillation counter.
What is called IC50 is the concentration at which inhibition is half-maximal. A high value points to a need for much substance. Compound `COc1cc(C(F)(F)F)cc(SC)c1C(=O)N[C@@]1(c2ccccc2)C[C@H](O)CN(C)C1` (racemic) [Example 107, N-((3R,5S) or (3S,5R)-5-Hydroxy-1-methyl-3-phenyl-piperidin-3-yl)-2-methoxy-6-methylsulfanyl-4-trifluoromethyl-benzamide hydrochloride] gave an IC50 of 31.2 nM. Next, `COc1cc(C(F)(F)F)cc(SC)c1C(=O)N[C@]1(c2ccccc2)C[C@@H](C)CN(C)C1` (racemic) [Example 121, N-((3S,5R) or (3R,5S)-1,5-Dimethyl-3-phenyl-piperidin-3-yl)-2-methoxy-6-methylsulfanyl-4-trifluoromethyl-benzamide]: 16.5 nM; `CCc1cc(C(F)(F)F)ccc1C(=O)N[C@@]1(c2ccccc2)C[C@H](C)CN(C)C1` (racemic) [Example 124, N-((3R,5S) or (3S,5R)-1,5-Dimethyl-3-phenyl-piperidin-3-yl)-2-ethyl-4-trifluoromethyl-benzamide]: 12.7 nM. `CCc1cc(C(F)(F)F)ccc1C(=O)N[C@@]1(c2ccccc2)C[C@H](OC)CN(C)C1` (racemic) [Example 125, 2-Ethyl-N-((3R,5S) or (3S,5R)-5-methoxy-1-methyl-3-phenyl-piperidin-3-yl)-4-trifluoromethyl-benzamide] registered an IC50 of 176 nM. Next, `CO[C@@H]1CN(C)C[C@](NC(=O)c2ccc(C(F)(F)F)cc2C2CC2)(c2ccccc2)C1` (racemic) [Example 126, 2-Cyclopropyl-N-((3R,5S) or (3S,5R)-5-methoxy-1-methyl-3-phenyl-piperidin-3-yl)-4-trifluoromethyl-benzamide]: 31.2 nM. For `COc1cc(C(F)(F)F)cc(OC)c1C(=O)N[C@@]1(c2ccccc2)CCCN(C)C1` (racemic) [Example 128, 2,6-Dimethoxy-N-(R or (S)-1-methyl-3-phenyl-piperidin-3-yl)-4-trifluoromethyl-benzamide], it took 126 nM to reach half-maximal inhibition (IC50). This IC50 lies about 4-fold higher than the previous one. For `Cl.[2H]C([2H])([2H])N1CCC[C@@](NC(=O)c2c(OC)cc(C(F)(F)F)cc2SC)(c2ccccc2)C1` (single isomer, unassigned) [Example 63, [2H-methyl]-2-Methoxy-N—(R) or (S)-1-methyl-3-phenyl-piperidin-3-yl)-6-methylsulfanyl-4-trifluoromethyl-benzamide hydrochloride] the value was 10 nM; for `COc1cc(C(F)(F)F)cc(SC)c1C(=O)NC1(c2ccccc2F)CCCN(C)C1` (single isomer, unassigned) [Example 111, N-[(R or S)-3-(2-Fluoro-phenyl)-1-methyl-piperidin-3-yl]-2-methoxy-6-methylsulfanyl-4-trifluoromethyl-benzamide], 57.3 nM. On to `COc1cc(C(F)(F)F)cc(SC)c1C(=O)NC1(c2cc(F)ccc2F)CCCN(C)C1` (single isomer, unassigned) [Example 113, N-[(R or S)-3-(2,5-Difluoro-phenyl)-1-methyl-piperidin-3-yl]-2-methoxy-6-methylsulfanyl-4-trifluoromethyl-benzamide], for which the IC50 was found to be 56.4 nM.

Compound `CCc1cc(C(F)(F)F)ccc1C(=O)NC1(c2ccccc2)CCCN(C)C1` (single isomer, unassigned) [Example 115, 2-Ethyl-N-((R or S)-1-methyl-3-phenyl-piperidin-3-yl)-4-trifluoromethyl-benzamide hydrochloride] came in with an IC50 of 25.9 nM. Next, `COc1cc(C(F)(F)F)cc(SC)c1C(=O)NC1(c2ccccc2)CN(C)CC(C)(C)C1` (single isomer, unassigned) [Example 116, 2-Methoxy-6-methylsulfanyl-4-trifluoromethyl-N-((S or R)-1,5,5-trimethyl-3-phenyl-piperidin-3-yl)-benzamide]: 35.8 nM.

Turning to `COc1cc(C(F)(F)F)cc(SC)c1C(=O)N[C@]1(c2ccccc2)CC[C@H](C)N(C)C1` (single isomer, unassigned) [Example 117, N-((3S,6S) or (3R,6R)-1,6-Dimethyl-3-phenyl-piperidin-3-yl)-2-methoxy-6-methylsulfanyl-4-trifluoromethyl-benzamide], the IC50 came to 32.4 nM.

In turn, `COc1cc(C(F)(F)F)cc(SC)c1C(=O)N[C@@]1(c2ccccc2)CC[C@@H](C)N(C)C1` (single isomer, unassigned) [Example 119, N-((3R,6R) or (3S,6S)-1,6-Dimethyl-3-phenyl-piperidin-3-yl)-2-methoxy-6-methylsulfanyl-4-trifluoromethyl-benzamide] had an IC50 of 13.9 nM. Next, `COc1cc(C(F)(F)F)cc(SC)c1C(=O)N[C@@]1(c2ccccc2)CC[C@H](C)N(C)C1` (single isomer, unassigned) [Example 120, N-((3R,6S) or (3S,6R)-1,6-Dimethyl-3-phenyl-piperidin-3-yl)-2-methoxy-6-methylsulfanyl-4-trifluoromethyl-benzamide]: 12.7 nM; `COc1cc(C(F)(F)F)cc(SC)c1C(=O)N[C@]1(c2ccccc2)CCCN(C)C1` (stereo in doubt) [Example 37, 2-Methoxy-N-((S)-1-methyl-3-phenyl-piperidin-3-yl)-6-methylsulfanyl-4-trifluoromethyl-benzamide hydrochloride]: 182 nM. Consider `COc1cc(C(F)(F)F)cc(SC)c1C(=O)N[C@@]1(c2ccccc2)CCCN(C)C1` (stereo in doubt) [Example 38, 2-Methoxy-N-((R)-1-methyl-3-phenyl-piperidin-3-yl)-6-methylsulfanyl-4-trifluoromethyl-benzamide hydrochloride], for which half-maximal inhibition (IC50) required 10.1 nM. Next, `CN1CCC[C@](NC(=O)c2ccc(C(F)(F)F)cc2C2CC2)(c2ccccc2)C1` (stereo in doubt) [Example 56, 2-Cyclopropyl-N-((S)-1-methyl-3-phenyl-piperidin-3-yl)-4-trifluoromethyl-benzamide hydrochloride]: 162 nM; `CN1CCC[C@@](NC(=O)c2ccc(C(F)(F)F)cc2C2CC2)(c2ccccc2)C1` (stereo in doubt) [Example 57, 2-Cyclopropyl-N-((R)-1-methyl-3-phenyl-piperidin-3-yl)-4-trifluoromethyl-benzamide hydrochloride]: 22.7 nM.

`COc1cc(C(F)(F)F)cc(SC)c1C(=O)N[C@@]1(c2ccccc2)C[C@H](OC)CN(C)C1` (stereo in doubt) [Example 75, 2-Methoxy-N-((3RS,5SR)-5-methoxy-1-methyl-3-phenyl-piperidin-3-yl)-6-methylsulfanyl-4-trifluoromethyl-benzamide] yielded an IC50 of 53.8 nM. As to `COc1cc(C(F)(F)F)cc(SC)c1C(=O)N[C@@]1(c2ccccc2)C[C@H](OC)CN(C)C1` (stereo in doubt) [Example 108, 2-Methoxy-N-((3R,5S) or (3S,5R)-5-methoxy-1-methyl-3-phenyl-piperidin-3-yl)-6-methylsulfanyl-4-trifluoromethyl-benzamide], half-maximal inhibition (IC50) was put at 40.9 nM.

The compound `COc1cc(C(F)(F)F)cc(SC)c1C(=O)N[C@]1(c2ccccc2)C[C@@H](OC)CN(C)C1` (stereo in doubt) [Example 109, 2-Methoxy-N-((3S,5R) or (3R,5S)-5-methoxy-1-methyl-3-phenyl-piperidin-3-yl)-6-methylsulfanyl-4-trifluoromethyl-benzamide] returned an IC50 of 151 nM.
